In US8795964B2, “GRM3 mutations and use thereof for the diagnosis and treatment of melanoma” (The United States of America, as represented by the …, priority 2010, dated 2014):

Columns and labels:
Format in all cases: cell-based, human
MEK = test: Immunoblot of Erk1/2 phosphorylation in melanoma cell lines treated with AZD-6244; details: 1 hour treatment
Description: (§1) FIGS. 5A-5E: Melanoma lines expressing GRM3 mutants show increased sensitivity to inhibition of MEK by AZD-6244. (FIG. 5A) Immunoblot analysis of representative melanoma cell lines harboring either WT or mutant GRM3. The cells were treated with the indicated concentration of AZD-6244 and analyzed for Erk1/2 expression and phosphorylation. Cells were treated for 1 hour with AZD-6244 or vehicle alone as control. Lysates were subjected to protein blot analysis with α-Eek, anti-P-Erk1/2 (α-P-Erk1/2) and anti-GAPDH as a loading control. (FIG. 5B) Representative dose-response curves showing efficacy of AZD-6244 against GRM3 mutant lines compared to WT GRM3 lines. Relative cell number after cells were treated for 72 hours with increasing concentrations (0.01-30 μM) of AZD-6244, as estimated by CellTiterGlo and plotted as percent survival, as compared to vehicle-treated control, versus log AZD-6244 concentration in nM (where 1 is 10 nM AZD-6244). […] (FIG. 5D) fluorescence activated cells sorting (FACS) analysis of WT (2T) and A190V mutant (17T) cells showing cell cycle distribution (propidium iodide (PI) staining, x axis) versus cell counts (y axis). […] (FIG. 5D) Quantification of FACS-sorted AZD-6244-treated cells. The percentage of apoptotic cells was determined based on the sub-G1 population for vehicle-treated cells or 1 AZD-6244 treated cells. […]

[1] = system: 63T-Glu573Lys melanoma cells; test: Growth inhibition by AZD-6244 of mutant GRM3 cells (63T) transduced with empty vector or WT GRM3; details: 63T cells, 72 hours treatment, CellTiterGlo
Description: FIGS. 12A-12C: Expression of WT GRM3 in a mutant GRM3 background desensitizes cells to AZD-6244 inhibition. (FIG. 12A) Cell lysates from 63T cells transduced with empty vector or WT GRM3 were analyzed by western blotting using anti-FLAG-HRP and anti-GAPDH as a loading control. (FIG. 12B) Melanoma cells harboring WT (13T) or mutant GRM3 (63T-Glu573Lys) transduced with empty vector or WT GRM3 were tested for growth inhibition by AZD-6244. Cells were plated and treated with AZD-6244 concentrations ranging from 2 nM to 30 μM for 72 hours prior to analysis using CellTiterGlo and GraphPad Prism5. EC50 dose-response curves were generated from GraphPad using four-parameter nonlinear regression. (FIG. 12C) EC50 values for inhibition of cell growth by 72 h treatment with AZD-6244 of the indicated melanoma cell lines.
To test AZD-6244 inhibition of cells that had been stimulated with DCG-IV to activate MEK1/2, melanoma cells were plated in 96-well plates at 2,000 cells per well in either RPMI-1640/0.5% FBS/2.5 μM DCG-IV or RPMI-1640/10% FBS and incubated for 24 hours prior to addition of inhibitor at concentrations from 2 nM to 30 μM. Once the inhibitor was added, cells were incubated for 72 hours at 37° C. Plates were then analyzed as described above. […]

[2] = system: melanoma cells harboring WT or mutant GRM3; test: Flow cytometry (FACS) cell cycle analysis, sub-G1 population; details: AZD-6244 2 μM for 72 hours, PI staining
Description: as §1, with “lines.” for “lines. Relative cell number after cells were treated for 72 hours with increasing concentrations (0.01-30 μM) of AZD-6244, as estimated by CellTiterGlo and plotted as percent survival, as compared to vehicle-treated control, versus log AZD-6244 concentration in nM (where 1 is 10 nM AZD-6244).”
Melanoma cells were seeded into T25 flasks at a density of 3×10^5 cells per flask in normal complete T2 medium and incubated at 37° C. for 24 hours prior to addition of AZD-6244 (cat #S1008) (Selleck Chemicals LLC-Houston, Tex.). […] Cellular DNA content was analyzed on Becton Dickinson FACSCalibur™ using CellQuest software. […]

PARP cleavage = test: Immunoblot of PARP cleavage after AZD-6244 treatment; details: lysates from FACS analyzed cells
A375 pooled GRM3 clones = test: Migration assay (Boyden chamber), A375 pooled GRM3 clones with or without DCG-IV; details: 2.5 μM DCG-IV, serum-free medium in top chamber
Description: (§2) FIGS. 3A-3C: GRM3 mutations increase cell migration in vitro and in vivo. (FIG. 3A) A375 pooled GRM3 clones in the absence of stimulus (i) migrate as well as those stimulated with the group II metabotropic agonist DCG-IV (ii). A375 clones were seeded in Boyden chambers in either the absence of stimulus (i) or in the presence of 2.5 μM DCG-IV (ii) and assessed for their ability to migrate 16 hours later. (FIG. 3B) Mel-STR pooled GRM3 clones were analyzed for migration as described in (FIG. 3A). Stained wells were analyzed using a Zeiss microscope 10× lens and counted with NIH ImageJ software. (FIG. 3C) non-obese diabetic (NOD)/severe combined immunodeficiency (SCID) mice were intravenously injected with A375 pooled GRM3 clones expressing WT, G561E, S610L, E767K, or E870K GRM3, or vector alone, and examined after nine weeks. (i) Graph indicates the number of mice that had lung macrometastases. (ii) Representative images of lungs from mice injected with vector, WT or mutant expressing A375 clones.
(§3) Mel-STR pooled clones were seeded into pre-conditioned migration wells (8.0 μm—BD Biocoat, BD Biosciences) at 30,000 cells per well in serum-free medium or serum-free medium plus 2.5 μM DCG-IV in the top chamber. […] Inserts were analyzed and the number of cells migrated per field view was quantitated using ImageJ (NIH software). […]

[3] = system: Mel-STR pooled GRM3 clones; test: Migration assay (Boyden chamber), Mel-STR pooled GRM3 clones with or without DCG-IV; details: 2.5 μM DCG-IV, serum-free medium in top chamber
Description: as §2, §3

SMILES | relative degree of MEK inhibition, mutant versus WT GRM3 cells (MEK) | inhibition of MEK as measured by phosphorylated ERK (p-ERK) levels (MEK; mutant as well as WT GRM3 melanoma cells) | resistance of cells overexpressing WT GRM3 in a mutant GRM3 background compared to control infected cells (cell proliferation) [1] | subG1 population (apoptotic cells) in mutant GRM3 cells compared to WT cells [2] | cleaved PARP in mutant GRM3 lines compared to WT cells (PARP cleavage) | migration of vector and WT GRM3 expressing cells upon stimulation (A375 pooled GRM3 clones) | migration of vector and WT GRM3 expressing cells upon stimulation [3]
Cn1cnc2c(F)c(Nc3ccc(Br)cc3Cl)c(C(=O)NOCCO)cc21 [AZD-6244] | greater for the mutant cells than for the WT cells | inhibited MEK | four-fold increased resistance | significant increase | increased levels of cleaved PARP |  | 
N[C@H](C(=O)O)C1[C@@H](C(=O)O)[C@@H]1C(=O)O (stereo partly shown) [DCG-IV] |  |  |  |  |  | migrated to a similar extent as mutant GRM3 expressing cells in the absence of stimuli | migrated to a similar extent as mutant GRM3 expressing cells in the absence of stimuli
